From ChEMBL document CHEMBL3885881, “DrugMatrix”

Species: Rattus norvegicus
Assay: DrugMatrix - Regimen: Daily Repeat
Format: toxicity, organism-based, Sprague-Dawley
Set-up: regimen Daily Repeat, gender Male, age 6-8 weeks
Conditions: in vivo, po, route oral GAVAGE, vehicle 100 % WATER; for ABSOLUTE BASOPHIL / ABSOLUTE EOSINOPHIL / ABSOLUTE LYMPHOCYTE / ABSOLUTE MONOCYTE / ABSOLUTE SEGMENTED NEUTROPHIL / BASOPHIL / EOSINOPHIL / ERYTHROCYTE COUNT / HEMATOCRIT / HEMOGLOBIN / LEUKOCYTE COUNT / LYMPHOCYTE / MEAN CORPUSCULAR HEMOGLOBIN / MEAN CORPUSCULAR HEMOGLOBIN CONCENTRATION / MEAN CORPUSCULAR VOLUME / MONOCYTE / NEUTROPHIL / NUCLEATED RED BLOOD CELLS / PLATELET COUNT: tissue Blood; for ALANINE AMINOTRANSFERASE / ALBUMIN / ALKALINE PHOSPHATASE / ASPARTATE AMINOTRANSFERASE / BLOOD UREA NITROGEN / CARBON DIOXIDE / CHLORIDE / CHOLESTEROL / CREATINE PHOSPHOKINASE / CREATININE / GLUCOSE / LACTATE DEHYDROGENASE / LIPASE / PHOSPHORUS / POTASSIUM / SODIUM / TOTAL BILIRUBIN / TOTAL PROTEIN / URIC ACID: tissue Plasma
[1] = 100 mg/kg, 120 h, dose level Low, time 5 day
[2] = 2500 mg/kg, 72 h, dose level High, time 3 day
[3] = 2500 mg/kg, 120 h, dose level High, time 5 day

NCC1(CC(=O)O)CCCCC1 [GABAPENTIN]
ABSOLUTE BASOPHIL [1]: 0 CELLS/uL | ABSOLUTE EOSINOPHIL [1]: 0 CELLS/uL | ABSOLUTE LYMPHOCYTE [1]: 13861.67 CELLS/uL | ABSOLUTE MONOCYTE [1]: 159 CELLS/uL | ABSOLUTE SEGMENTED NEUTROPHIL [1]: 1246 CELLS/uL | BASOPHIL [1]: 0% | EOSINOPHIL [1]: 0% | ERYTHROCYTE COUNT [1]: 5.64 x10E6/uL | HEMATOCRIT [1]: 35.7% | HEMOGLOBIN [1]: 14.27 G/DL | LEUKOCYTE COUNT [1]: 15.27 x10E3/uL | LYMPHOCYTE [1]: 91% | MEAN CORPUSCULAR HEMOGLOBIN [1]: 25.33 pg | MEAN CORPUSCULAR HEMOGLOBIN CONCENTRATION [1]: 39.97 G/DL | MEAN CORPUSCULAR VOLUME [1]: 63.33 fL | MONOCYTE [1]: 1% | NEUTROPHIL [1]: 8% | NUCLEATED RED BLOOD CELLS [1]: 0 /100WBC | PLATELET COUNT [1]: 1093 x10E3/uL | ALANINE AMINOTRANSFERASE [1]: 54.67 u/L | ALBUMIN [1]: 4.37 G/DL | ALKALINE PHOSPHATASE [1]: 380.67 u/L | ASPARTATE AMINOTRANSFERASE [1]: 86 u/L | BLOOD UREA NITROGEN [1]: 15.67 mg/dL | CARBON DIOXIDE [1]: 31.33 mmol/L | CHLORIDE [1]: 101.67 MEQ/L | CHOLESTEROL [1]: 72.33 mg/dL | CREATINE PHOSPHOKINASE [1]: 410.33 u/L | CREATININE [1]: 0.16 mg/dL | GLUCOSE [1]: 172.67 mg/dL | LACTATE DEHYDROGENASE [1]: 185.67 u/L | LIPASE [1]: 9.67 u/L | PHOSPHORUS [1]: 11.93 mg/dL | POTASSIUM [1]: 6 MEQ/L | SODIUM [1]: 144.93 MEQ/L | TOTAL BILIRUBIN [1]: 0.1 mg/dL | TOTAL PROTEIN [1]: 6.07 G/DL | URIC ACID [1]: 1.23 mg/dL | ABSOLUTE BASOPHIL [2]: 0 CELLS/uL | ABSOLUTE EOSINOPHIL [2]: 0 CELLS/uL | ABSOLUTE LYMPHOCYTE [2]: 17008 CELLS/uL | ABSOLUTE MONOCYTE [2]: 0 CELLS/uL | ABSOLUTE SEGMENTED NEUTROPHIL [2]: 1925.33 CELLS/uL | BASOPHIL [2]: 0% | EOSINOPHIL [2]: 0% | ERYTHROCYTE COUNT [2]: 5.55 x10E6/uL | HEMATOCRIT [2]: 36.63% | HEMOGLOBIN [2]: 14.27 G/DL | LEUKOCYTE COUNT [2]: 18.93 x10E3/uL | LYMPHOCYTE [2]: 90% | MEAN CORPUSCULAR HEMOGLOBIN [2]: 25.7 pg | MEAN CORPUSCULAR HEMOGLOBIN CONCENTRATION [2]: 38.93 G/DL | MEAN CORPUSCULAR VOLUME [2]: 66.03 fL | MONOCYTE [2]: 0% | NEUTROPHIL [2]: 10% | NUCLEATED RED BLOOD CELLS [2]: 0.33 /100WBC | PLATELET COUNT [2]: 1357 x10E3/uL | ALANINE AMINOTRANSFERASE [2]: 70.67 u/L | ALBUMIN [2]: 4.47 G/DL | ALKALINE PHOSPHATASE [2]: 324.33 u/L | ASPARTATE AMINOTRANSFERASE [2]: 79.67 u/L | BLOOD UREA NITROGEN [2]: 15 mg/dL | CARBON DIOXIDE [2]: 30.67 mmol/L | CHLORIDE [2]: 99.67 MEQ/L | CHOLESTEROL [2]: 90 mg/dL | CREATINE PHOSPHOKINASE [2]: 203.33 u/L | CREATININE [2]: 0.15 mg/dL | GLUCOSE [2]: 164.33 mg/dL | LACTATE DEHYDROGENASE [2]: 162 u/L | LIPASE [2]: 11.33 u/L | PHOSPHORUS [2]: 13.37 mg/dL | POTASSIUM [2]: 6.75 MEQ/L | SODIUM [2]: 143.83 MEQ/L | TOTAL BILIRUBIN [2]: 0.1 mg/dL | TOTAL PROTEIN [2]: 6.13 G/DL | URIC ACID [2]: 2.23 mg/dL | ABSOLUTE BASOPHIL [3]: 0 CELLS/uL | ABSOLUTE EOSINOPHIL [3]: 0 CELLS/uL | ABSOLUTE LYMPHOCYTE [3]: 12458 CELLS/uL | ABSOLUTE MONOCYTE [3]: 100 CELLS/uL | ABSOLUTE SEGMENTED NEUTROPHIL [3]: 1842 CELLS/uL | BASOPHIL [3]: 0% | EOSINOPHIL [3]: 0% | ERYTHROCYTE COUNT [3]: 5.12 x10E6/uL | HEMATOCRIT [3]: 32.03% | HEMOGLOBIN [3]: 13.13 G/DL | LEUKOCYTE COUNT [3]: 14.4 x10E3/uL | LYMPHOCYTE [3]: 86.33% | MEAN CORPUSCULAR HEMOGLOBIN [3]: 25.67 pg | MEAN CORPUSCULAR HEMOGLOBIN CONCENTRATION [3]: 41 G/DL | MEAN CORPUSCULAR VOLUME [3]: 62.57 fL | MONOCYTE [3]: 0.67% | NEUTROPHIL [3]: 13% | NUCLEATED RED BLOOD CELLS [3]: 0 /100WBC | PLATELET COUNT [3]: 1217 x10E3/uL | ALANINE AMINOTRANSFERASE [3]: 71.67 u/L | ALBUMIN [3]: 4.3 G/DL | ALKALINE PHOSPHATASE [3]: 373 u/L | ASPARTATE AMINOTRANSFERASE [3]: 84.67 u/L | BLOOD UREA NITROGEN [3]: 19.67 mg/dL | CARBON DIOXIDE [3]: 28.67 mmol/L | CHLORIDE [3]: 102.33 MEQ/L | CHOLESTEROL [3]: 64 mg/dL | CREATINE PHOSPHOKINASE [3]: 156 u/L | CREATININE [3]: 0.17 mg/dL | GLUCOSE [3]: 148.33 mg/dL | LACTATE DEHYDROGENASE [3]: 96.67 u/L | LIPASE [3]: 8 u/L | PHOSPHORUS [3]: 11.7 mg/dL | POTASSIUM [3]: 6.37 MEQ/L | SODIUM [3]: 144.6 MEQ/L | TOTAL BILIRUBIN [3]: 0.17 mg/dL | TOTAL PROTEIN [3]: 6.03 G/DL | URIC ACID [3]: 1.33 mg/dL
